Measured values from patent US12036200B2, “Bismuth-thiol compositions and methods for treating wounds” (Microbion Corporation, priority 2018, dated 2024).
Entries after “also recorded” stand apart in the source; their conditions may differ.

What was measured:
[1] = tested on: subjects with a moderate to severe DFI; assay: Phase 1b/2a DFI study (Example 7): biofilm score; format: in vivo, human; settings: ME Population, BisEDT dose groups vs placebo
Source text: Biofilm Response: The distribution of absolute scores at the EOT and TOC visits are descriptively summarized using counts and percentages by treatment group. Treatments were compared using the Cochran Mantel Haenszel mean score test statistic, and the p-value is presented. Additionally, shift tables showing individual subject changes from baseline to EOT and TOC visits are presented. Analyses are presented for the ME Population.
Biofilm response: The following categories were used: score 0, no bacteria observed; 1, single individual cells; 2, small micro-colonies (˜10 cells); 3, large micro-colonies (˜100 cells); 4, continuous film; 5, thick continuous film. Subjects with no debridement material as a result of their DFI healing were given a score of 0. The distribution of absolute scores at the EOT and TOC visits are descriptively summarized using counts and percentages by treatment group. Treatments were compared using the Cochran Mantel Haenszel mean score test statistic, and the p-value is presented. Additionally, a shift table showing individual subject changes from baseline to EOT and TOC visits is presented. Analyses are presented for the ME Population.

[2] = tested on: subjects with a moderate to severe DFI; assay: Phase 1b/2a DFI study (Example 7): microbiological response, colonization, reinfection, relapse; format: in vivo, human
Procedure: Efficacy: The following clinical and microbiological efficacy outcomes were assessed: • Proportion of subjects with a clinical cure of infection 2 weeks following the end of dosing, TOC with BisEDT or placebo. Subjects were classified into one of the following groups: cured (resolution of all clinical signs and symptoms of infection or sufficient improvement such that additional antimicrobial therapy was not required), failure (insufficient resolution of at least one of the initial signs and symptoms of infection, or the need for any additional or alternative antimicrobial therapy, or the need for surgical treatment of the infection), or indeterminate (assessment not possible for any reason). • Proportion of subjects with a clinical cure at EOT with BisEDT or placebo. • Proportion of subjects with a confirmed or presumed microbiological cure 2 weeks following the end of dosing, TOC. Subjects were classified into one of the following groups: confirmed eradication (all of the original pathogens were absent), presumed eradication (there was no available material for culture but the infection clinically responded to treatment), persistence (presence of a pathogen isolated at baseline), or indeterminate (inability to determine microbiological response). • Proportion of subjects with a confirmed or presumed microbiological cure at the EOT and EOS. At the EOS visit, additional classification groups included: colonization (isolation of a new organism that was not present on the initial culture but the wound was not clinically infected); reinfection (isolation of a new organism that was not present on the initial culture and the wound was clinically infected) or relapse (the same organism that was present on the initial culture was again isolated, after an intervening confirmed [sterile culture] or presumed [no material to culture] microbiological response and the wound was clinically infected). • Change from baseline in the Biofilm Score at EOT and TOC. • Proportion of subjects that underwent lower-extremity amputation involving the infected foot. • Proportion of subjects needing any infection-related surgery (ie, lower-extremity amputation, incision and drainage of a new abscess, or soft tissue or bone resection) after treatment had started. • Change from baseline in the 8-item DFI wound score at EOT, TOC, and EOS. • Percent reduction in ulcer size at EOS and each study visit.
Microbiological Response: The distribution of microbiological response outcome categories (confirmed eradication, presumed eradication, persistence, and indeterminate) are descriptively summarized by treatment group using counts and percentages at the TOC, EOT, and EOS visits. The eradication rate (confirmed+presumed vs the rest) was analyzed using the same methodology as clinical response. Analyses are presented for the ME Population.
Colonization, Reinfection, and Relapse: At the EOS visit, the number and percentage of subjects with a colonization, reinfection, or relapse are tabulated by treatment group for the ME Population.
Microbiologic assessment. Cultures were collected at baseline and as needed for the treatment of the subject. Tissue samples were shipped to a central laboratory where the presence of viable microorganisms was determined by standard microbiological culture methods and included speciation. […] The susceptibility of bacterial isolates to BisEDT was also determined, but was not reported to investigators.

[3] = tested on: subjects with a moderate to severe DFI; assay: Phase 1b/2a DFI study (Example 7): clinical response; format: in vivo, human; settings: MITT Population, BisEDT dose groups vs placebo
Procedure: Methodology: This was a randomized, double-blind, placebo-controlled, multicenter study that was planned to be conducted in 2 parts. In Part 1, subjects were enrolled into escalating dose cohorts (BisEDT at concentrations of 150, 375, and 750 μg/mL resulting in doses of 3, 7.5, and 15 μg/cm^2) (N=16 per cohort) at a ratio of 3:1 (BisEDT to placebo).
In Part 1, subjects received either topical application of BisEDT or topical application of placebo, applied directly to the infected ulcer, 3 times per week, for a minimum of 2 weeks (ie, 6 doses) and up to a maximum of 3 weeks (ie, 9 doses). […] The determination to stop topical BisEDT therapy after a minimum of 2 weeks (ie, 6 doses) was at the discretion of the Principal Investigator and based on the resolution of clinical findings of infection.
Efficacy: The following clinical and microbiological efficacy outcomes were assessed: • Proportion of subjects with a clinical cure of infection 2 weeks following the end of dosing, TOC with BisEDT or placebo. […]
At the TOC, EOT, and EOS visits, the cure rate (cured vs not cured) was analyzed using an Exact Logistic Regression model with covariates for treatment dose group, the 8-item baseline wound score, and the interaction of treatment group and baseline wound score. […]

[4] = Particle size of microparticulate BisEDT, Nanosizer/Zetasizer Nano-S (Example 1); format: physicochemical; settings: resuspended in 2% Pluronic F-68, sonicated
Procedure: The dried particulate matter was characterized to assess the particle size properties. Briefly, microparticles were resuspended in 2% Pluronic® F-68 (BASF, Mt. Olive, NJ) and the suspension was sonicated for 10 minutes in a water bath sonicator at standard setting prior to analysis using a Nanosizer/Zetasizer Nano-S particle analyzer (model ZEN1600 (without zeta-potential measuring capacity), Malvern Instruments, Worcestershire, UK) according to the manufacturer's recommendations.

[5] = Phase 1b/2a DFI study (Example 7): safety and tolerability; format: in vivo, human
Source text: The primary objective of Part 1 of this study and the planned primary objective of Part 2 of this study was to evaluate the safety and tolerability of topically administered BisEDT composition as adjunct to standard of care (including systemic antibiotic therapy) in subjects with a moderate to severe DFI. The secondary objectives of Part 1 of this study and the planned secondary objectives of Part 2 of this study were: To evaluate the effect of adjunctive BisEDT composition on resolution of infection; To evaluate the effect of adjunctive BisEDT composition on eradication of pathogens; To evaluate the effect of BisEDT composition on eradication of biofilms; To evaluate the effect of BisEDT composition on wound healing; To evaluate the effect of BisEDT composition for the prevention of lower extremity amputations; To evaluate the effect of BisEDT composition for the prevention of infection related surgery; To evaluate the effect of BisEDT composition on duration of systemic antibiotic use; To evaluate the effect of BisEDT composition on length of hospital stay; To evaluate the systemic absorption and pharmacokinetics of topically administered BisEDT composition.

[6] = Phase 1b/2a DFI study (Example 7): pharmacokinetic evaluation, blood concentration of bismuth; format: in vivo, human; settings: topical BisEDT 3, 7.5, 15 μg/cm^2; whole blood concentrations
Procedure: The primary objective of Part 1 of this study and the planned primary objective of Part 2 of this study was to evaluate the safety and tolerability of topically administered BisEDT composition as adjunct to standard of care (including systemic antibiotic therapy) in subjects with a moderate to severe DFI. […]
The mean bismuth concentration by day for the PK Concentration Population included: 8 subjects on Day 1 predose (only 2 subjects with detectable levels of 0.582 and 0.548 ng/mL, hypothesized to be from undisclosed use of bismuth containing medications or from dressings containing bismuth, such as Xeroform®, as blood was collected before treatment with BisEDT); 8 subjects on Day 3 predose (only 1 subject with a detectable level of 0.525 ng/mL); 8 subjects on Day 5 predose (only 1 subject with a detectable level of 0.701 ng/mL); and 8 subjects on Day 8 predose (only 1 subject with a detectable level of 0.513 ng/mL). […] Bismuth levels were not measured in samples that were erroneously processed to plasma by the 1 site that enrolled the majority of the subjects in the PK study, as bismuth levels are expected to be 15 to 20 times lower in plasma samples compared to whole blood samples and would be well below the lower limit of quantitation for the assay method; no PK parameters were calculated.

[7] = tested on: Staphylococcus aureus (S. aureus); assay: Staphylococcus aureus mouse model: efficacy of BisEDT on spleen and wound titer (Example 4); format: in vivo
Procedure: Establishment of Mouse Model: A luminescent strain of Staphylococcus aureus (S. aureus) was administered intravenously to adult, female, Swiss Webster mice and 48 hours was allowed for a biofilm to form. Mice were treated daily intravenously with 100 μL of serial dilutions of BisEDT. In this example, BisEDT was used as a suspension (w:v) (e.g. 150, 375, or 750 μg/mL) of drug particles in diluent, which is composed of 3% methylcellulose/0.5% polysorbate 80/10 mM sodium chloride/10 mM sodium phosphate, pH 7.4.
Imaging Studies: Mice were imaged using Silhouette to determine wound size and volume, and In Vivo Imaging Systems (IVIS) Lumina X5 to quantitate bioluminescence.
Terminal colony forming units (CFU) were determined by plating homogenized tissue from the wound bed and in the spleen. Mice were euthanized and wound tissue and spleens were harvested. Tissue samples were weighed and placed into microtubes containing sterile phosphate buffer and homogenized. The homogenate was then serially diluted and plated to determine CFU/g tissue.
An initial study evaluated the effect of BisEDT suspension on CFUs in the spleen and wound bed. The study occurred over 11 days with 9 days of treatment. The BisEDT suspension was administered to 30 (n=5 mice/group) mice at concentrations of 2500, 250, 25, 2.5, 0.25, 0.25, 0.025 μg/mL. A comparator control was vehicle, or diluent, and 50% DMSO in PBS.
A subsequent study evaluated the effect of higher concentrations of BisEDT suspension on CFUs in the spleen and wound bed. The study occurred over 12 days with 10 days of treatment. BisEDT suspension was administered to 20 (n=5 mice/group) at concentrations of 10, 5, 2.5, and 0.75 mg/mL. A negative control was mice that were untreated, and a positive control was mice that were treated with Prontosan. […] Complete inhibition was observed compared to the untreated control (FIG. 3). Further, treatment with 5 mg/mL BisEDT reduced CFUs by 1.5-2 logs, greater than the positive prontosan control.

[8] = tested on: Patients with Moderate to Severe Diabetic Foot Infection; assay: Phase 1b/2a study of topical BisEDT: wound surface area by 3D digital photographs (Example 6); format: in vivo, human; settings: end of treatment, test of cure and end of study
Procedure: Adjunctive local administration of BisEDT was tested for its efficacy in resolving both infection and critical colonization, thereby removing these barriers to wound repair and closure. This represents a fundamental, clinically meaningful benefit.
Topical BisEDT suspension and placebo were used in combination with SOC systemic antibiotics (such as levofloxacin) for a duration of 2-3 weeks. […] BisEDT, when used in conjunction with systemic antibiotics, for a duration of […] (3× per week) may be beneficial in resolving both infection and critical colonization, therefore enabling wound repair and closure, a fundamental, clinically meaningful benefit.

[9] = EOS visit, ME Population, BisEDT dose groups vs placebo
[10] = topical doses of 3, 7.5, and 15 μg/cm^2

For `C1C[S][Bi]([S]CC[S][Bi]2[S]CC[S]2)[S]1` [BisEDT, bismuth-1,2-ethanedithiol], the “biofilm response, comparison of treatment groups” value ([1]; EOT visit) was “No difference in biofilm response at the EOT visit between treatment groups was observed”, the “biofilm response, comparison of treatment groups” value ([1]; TOC visit) was “No difference in biofilm response at the TOC visit between treatment groups was observed” and the “colonization, reinfection, and relapse, comparison of treatment groups” value [2, 9] was “No difference between treatment groups was observed”. The “microbiological response, comparison of treatment groups” value (“microbiological response, comparison” below) [2, 9] was “No difference between treatment groups was observed”, the “microbiological response, comparison” value ([2]; EOT visit, ME Population, BisEDT dose groups vs placebo) was “No difference between treatment groups was observed” and the “microbiological response, comparison” value ([2]; TOC visit, ME Population, BisEDT dose groups vs placebo) was “No difference between treatment groups was observed”. The “reduction of reinfection or relapse with BisEDT compared to placebo” value ([2]; all dose groups combined 12.5% vs placebo 33.3%, EOS visit) was “approximately one-third”, the “clinical response, comparison of treatment groups” value ([3]; EOT visit) was “No difference between treatment groups was observed” and the “clinical response, comparison of treatment groups” value ([3]; TOC visit) was “No difference between treatment groups was observed”. The “peak VMD” value [4] was “about 1.3 microns”, the “TEAEs and SAEs related to study drug” value [5, 10] was “None of the TEAEs and SAEs occurring in the study were considered related to study drug” and the safety signals [5, 10] was “No safety signals were identified”. The safety and tolerability ([5]; topical doses of 3, 7.5, and 15 μg/cm^2, 3 times per week, 2-3 weeks) was “safe and well tolerated”, the systemic exposure [6] was “very little systemic exposure; also recorded: does not appear to exhibit any relevant systemic exposure; also recorded: limited systemic exposure” and the “mice exhibiting no infection (spleen)” value ([7]; 2.5 mg/mL BisEDT (FIG. 4)) was “three”. For the same compound, the “reduction of wound titer compared to diluent” value ([7]; 2500 μg/mL BisEDT suspension, mice, 9 days of treatment (FIG. 1)) was “approximately five”, the “reduction of CFU compared to untreated control” value ([7]; 10 mg/mL BisEDT, mice, 10 days of treatment, complete inhibition (FIG. 3)) was “more than eight” and the “proportion of subjects with >50% reduction in wound surface area from baseline, compared to placebo” value [8] was “larger proportion”.
